The values that follow come from US8691777B2, “Combination therapy” (Emory University, priority 2011, dated 2014).

The structures appear in SMILES notation.

The test system of one assay is tsc2ang1 cells. Kind of assay: proliferation assay with tsc2ang1 cells (Coulter counter). The class given is cell-based, murine. As to conditions: rapamycin 5 nM, imatinib 10 μM, 24 hours, vs DMSO control. On the procedure: 10^4 tsc2ang1 cells per well were plated in 24-well dishes in triplicate. The next day, fresh medium containing the compounds or vehicle controls was added. Cells were incubated at 37° C. Tsc2ang1 (ATCC CRL 2620) is a murine cell line derived from a cutaneous sarcoma that arose in the extremity of a mouse heterozygous for tsc2; these mice develop cutaneous sarcomas at a frequency of about 10 to 15%. The cells were cultured in complete DMEM medium supplemented with 10% FBS (Sigma Aldrich, St Louis, Mo.). […] Cells were treated with vehicle control (DMSO), rapamycin (5 nM), imatinib (10 μM) or imatinib (10 μM)+rapamycin (5 nM) (shown along X-axis) for 24 h and counted using a Coulter counter. The Y-axis represents cell number with error bars representing the SEM.

The test system of a further assay is MMP-2. Nature of the assay: gelatin zymography of conditioned media of tsc2ang1 cells. The settings on record: 24 hours, vs DMSO-treated control. The class given is cell-based, murine.
The target of the next assay is PDGFR-β (Mus musculus, UniProt P05622). Kind of assay: Western blot of PDGFR-β and phospho-PDGFR-β in Tsc2ang1 cells. As to conditions: imatinib 10 μm, rapamycin 10 nM, vs DMSO control. (In general: In western blotting, separated proteins are transferred to a membrane and probed.)
Chain of PDGFR-β (P05622 32-1098): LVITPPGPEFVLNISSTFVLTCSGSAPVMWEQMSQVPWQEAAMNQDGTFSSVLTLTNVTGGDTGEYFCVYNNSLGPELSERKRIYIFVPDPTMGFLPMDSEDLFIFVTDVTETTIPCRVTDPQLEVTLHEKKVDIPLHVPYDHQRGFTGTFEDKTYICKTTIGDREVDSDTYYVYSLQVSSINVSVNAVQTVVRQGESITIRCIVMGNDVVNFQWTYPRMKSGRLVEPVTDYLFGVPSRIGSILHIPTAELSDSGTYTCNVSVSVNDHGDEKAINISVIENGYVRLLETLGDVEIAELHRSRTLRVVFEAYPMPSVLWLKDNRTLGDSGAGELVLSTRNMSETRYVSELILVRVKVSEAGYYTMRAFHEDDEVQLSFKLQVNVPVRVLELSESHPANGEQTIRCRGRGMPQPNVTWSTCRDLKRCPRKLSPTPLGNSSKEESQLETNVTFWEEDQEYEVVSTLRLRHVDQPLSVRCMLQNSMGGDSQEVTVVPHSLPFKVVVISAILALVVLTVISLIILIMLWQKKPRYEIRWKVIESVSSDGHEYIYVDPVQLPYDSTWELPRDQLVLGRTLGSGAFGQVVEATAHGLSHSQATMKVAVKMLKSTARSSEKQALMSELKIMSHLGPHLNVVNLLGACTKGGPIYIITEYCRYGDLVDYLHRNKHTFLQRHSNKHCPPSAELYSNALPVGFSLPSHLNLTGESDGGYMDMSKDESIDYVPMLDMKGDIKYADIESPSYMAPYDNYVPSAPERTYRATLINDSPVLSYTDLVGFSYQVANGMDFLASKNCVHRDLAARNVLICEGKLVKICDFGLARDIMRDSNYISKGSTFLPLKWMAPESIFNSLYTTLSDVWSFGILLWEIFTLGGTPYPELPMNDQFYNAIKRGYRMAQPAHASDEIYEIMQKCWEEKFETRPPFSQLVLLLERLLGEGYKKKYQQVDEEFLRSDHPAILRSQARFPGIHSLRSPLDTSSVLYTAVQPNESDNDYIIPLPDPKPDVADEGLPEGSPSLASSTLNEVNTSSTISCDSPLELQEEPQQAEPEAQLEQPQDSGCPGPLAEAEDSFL

Method for MMP-2: The presence and activity of specific MMP species were detected using gelatin zymography. An aliquot of each conditioned media sample was centrifuged at 4,000 rpm for 1-5 min at 4° C. and supernatant was used. A buffer of 4% SDS, 0.15 mol/L Tris (pH 6.8), 20% glycerol and 0.5% (w/v) bromophenol blue was added to the conditioned media sample. […] Gels were then incubated over night at 37° C. in substrate buffer containing 50 mmol/L Tris-HCL (pH 8), 5 mmol/L CaCl2 and 0.02% NaN3. After incubation, gels were stained for 30 min in 0.5% Coomassie Blue R-250 dissolved in acetic acid, isopropyl alcohol and water (1:3:6); destained in acetic acid, ethanol and water (1:3:6). The finalized gel was scored for the presence/absence MMP activity by a blinded evaluator and photographed.
Method for PDGFR-β: The impact of imatinib (10 μm), rapamycin (10 nM), and a combination of rapamycin and imatinib on the phosphorylated PDGFR-β signaling pathway was tested in Tsc2ang1cells.
Lysates of Tsc2ang1 cells treated with vehicle or indicated drugs were prepared in NP-40 lysis buffer (1% NP-40, 150 mmol/L NaCl, 10% glycerol, 20 mmol/L HEPES, 1 mmol/L phenylmethylsulfonyl fluoride, 2.5 mmol/L EDTA, 100 μmol/L Na3VO4, and 1% aprotinin) Protein concentration in cleared lysates was determined using an Eppendorf BioPhotometer. Samples were resolved using SDS-PAGE (National Diagnostics) and transferred to nitrocellulose membranes. The membranes were blocked with 5% nonfat dry milk in 10 mmol/L Tris/0.1% Tween 20/100 mmol/L NaCl and incubated with primary antibodies followed by horseradish peroxidase-conjugated secondary antibody. The immunoreactive bands were visualized by enhanced chemiluminescence (Amersham Biosciences). The antibodies used were: Phospho-PDGFR-β antibody (Tyr 1021) (Cell signaling Laboratories); Phospho-PDGFR-β antibody (Tyr 1009) (Cell Signaling Laboratories); Aurora kinase A antibody (4718) (Cell signaling Laboratories), Aurorakinase B (3094) antibody (Cell signaling Laboratories) monoclonal anti-β-tubulin antibody (Sigma) was used as a loading control.

In the case of `Cc1ccc(NC(=O)c2ccc(CN3CCN(C)CC3)cc2)cc1Nc1nccc(-c2cccnc2)n1` [imatinib], the viable cell number entry in the assay with tsc2ang1 cells was “decrease in the viable cell numbers”. Also, the MMP-2 gelatinase activity result in the assay on MMP-2 is recorded as “decrease in the level of MMP-2”. Also, on PDGFR-β, the “PDGFR β phosphorylation” value is recorded as “downregulation of PDGFR β phosphorylation”.
